According to patent US12377104B1, “Methods for treating a fatty liver disease” (Madrigal Pharmaceuticals, Inc., priority 2024, dated 2025):
Several values for one entry are separate records, joined by “and”; a condition that tells them apart may be missing. Identical values can stand only once.

Test system: adults with biopsy-confirmed NASH
Assay: MAESTRO-NASH: lipids, lipoproteins and lipid particles
Assay type: in vivo, human
Conditions: 100 mg; for ApoB, Least Squares Mean % CFB / ApoB, Least Squares Mean % CFB Difference from PBO / LDL-C, Least Squares Mean % CFB / LDL-C, Least Squares Mean % CFB Difference from PBO: baseline LDL-C >100 mg/dL; for Lp(a), LS mean % CFB / Lp(a), LS mean % CFB difference from PBO: baseline Lp(a) >10 nmol/L; for Triglycerides, LS mean % CFB / Triglycerides, LS mean % CFB difference from PBO: baseline triglycerides >150 mg/dL
Protocol: Within the study, we provided analyses based on an analysis of covariance (ANCOVA) model after having performed single imputation for LDL-C as described in the statistical analysis plan (SAP). The ANCOVA model estimated least-squares means using treatment and baseline LDL-C as covariate.
To this end, the Week 24 LDL-C assessment and assessments at any visit in which LDL-C is measured (Weeks 4, 12, 16, 20, 24, 28, 32, 36, 40, 44, 48, and 52) that has been impacted by kit shortage at the prior visit (unavailability of […] (IP) during the 4 weeks preceding the visit due to the COVID-19 pandemic as indicated on the electronic case report form (eCRF)), were considered missing and were imputed from an unaffected assessment at surrounding visits or using data from subjects unaffected by this intercurrent event as described in Section 11.2 of the SAP. In summary, single imputation utilizing adjacent and valid […] measurements were imputed.
For missing lipid data that are still missing after the single imputation approach described, those missing lipid data were imputed using the non-missing lipid values (including the singly imputed data) based on missing at random (MAR)-based (MI). When applying the MAR-based […], data were imputed separately by randomized treatment group and baseline stratification factors.

CC(C)c1cc(Oc2c(Cl)cc(-n3nc(C#N)c(=O)[nH]c3=O)cc2Cl)n[nH]c1=O [Resmetirom, 2-(3,5-dichloro-4-((5-isopropyl-6-oxo-1,6-dihydropyridazin-3-yl)oxy)phenyl)-3,5-dioxo-2,3,4,5-tetrahydro-1,2,4-triazine-6-carbonitrile]
Apolipoprotein B level, difference from placebo (wk 24): −20.2 percentage points
Apolipoprotein B level, least-squares mean percent change from baseline (wk 24): −19.8 ± 1.3%
LDL cholesterol level, difference from placebo (wk 24): −16.4 percentage points
LDL cholesterol level, least-squares mean percent change from baseline (wk 24): −16.3% and −16.3 ± 1.7%
Lipoprotein(a) level, difference from placebo (wk 24): −35.1 percentage points
Triglyceride level, difference from placebo (wk 24): −19.1 percentage points
Lipoprotein(a) level, least-squares mean percent change from baseline (wk 24, baseline lipoprotein(a) >10 nmol per liter): −35.9 ± 4.0%
Triglyceride level, least-squares mean percent change from baseline (wk 24, baseline triglyceride >150 mg per deciliter): −21.7 ± 4.3%
ApoB, LS mean % CFB (Week 24): -19.8%
ApoB, LS mean % CFB difference from PBO (Week 24): −20.2%
ApoCIII, Least Squares Mean % CFB (Week 24): −14.1%
ApoCIII, Least Squares Mean % CFB Difference from PBO (Week 24): −22.2%
HDL-C, Least Squares Mean % CFB (Week 24): 2.9%
HDL-C, Least Squares Mean % CFB Difference from PBO (Week 24): 1.2%
LDL-C, LS mean % CFB (Week 24): −16.3%
LDL-C, LS mean % CFB difference from PBO (Week 24): −16.4%
Non-HDL-C, Least Squares Mean % CFB (Week 24): −17.7%
Non-HDL-C, Least Squares Mean % CFB Difference from PBO (Week 24): −17.9%
ApoB, Least Squares Mean % CFB (Week 24): −22.1%
ApoB, Least Squares Mean % CFB Difference from PBO (Week 24): −18.4%
LDL-C, Least Squares Mean % CFB (Week 24): −20.6%
LDL-C, Least Squares Mean % CFB Difference from PBO (Week 24): −14.7%
ApoCIII, Least Squares Mean % CFB (Week 52): −17.1%
ApoCIII, Least Squares Mean % CFB Difference from PBO (Week 52): −26.9%
HDL particle size, Least Squares Mean % CFB (Week 52): 0.40%
HDL particle size, Least Squares Mean % CFB Difference from PBO (Week 52): 0.10%
HDL particles, Least Squares Mean % CFB (Week 52): 2.3%
HDL particles, Least Squares Mean % CFB Difference from PBO (Week 52): 0.69%
HDL-C, Least Squares Mean % CFB (Week 52): 4.6%
HDL-C, Least Squares Mean % CFB Difference from PBO (Week 52): 2.0%
LDL particle size, Least Squares Mean % CFB (Week 52): −0.35%
LDL particle size, Least Squares Mean % CFB Difference from PBO (Week 52): −0.39%
LDL particles, Least Squares Mean % CFB (Week 52): −20.0%
LDL particles, Least Squares Mean % CFB Difference from PBO (Week 52): −19.4%
Large HDL particles, Least Squares Mean % CFB (Week 52): 4.5%
Large HDL particles, Least Squares Mean % CFB Difference from PBO (Week 52): −7.7%
Large LDL particles, Least Squares Mean % CFB (Week 52): 55.6%
Large LDL particles, Least Squares Mean % CFB Difference from PBO (Week 52): −30.8%
Large VLDL and chylomicron particles, Least Squares Mean % CFB (Week 52): −9.1%
Large VLDL and chylomicron particles, Least Squares Mean % CFB Difference from PBO (Week 52): −20.2%
Medium HDL particles, Least Squares Mean % CFB (Week 52): 130.2%
Medium HDL particles, Least Squares Mean % CFB Difference from PBO (Week 52): 65.2%
Medium VLDL particles, Least Squares Mean % CFB (Week 52): −27.4%
Medium VLDL particles, Least Squares Mean % CFB Difference from PBO (Week 52): −143.2%
Non-HDL-C, Least Squares Mean % CFB (Week 52): −22.1%
Non-HDL-C, Least Squares Mean % CFB Difference from PBO (Week 52): −21.7%
Small LDL particles, Least Squares Mean % CFB (Week 52): 6.6%
Small LDL particles, Least Squares Mean % CFB Difference from PBO (Week 52): −15.0%
Small VLDL particles, Least Squares Mean % CFB (Week 52): 26.3%
Small VLDL particles, Least Squares Mean % CFB Difference from PBO (Week 52): −15.3%
VLDL and chylomicron particles, Least Squares Mean % CFB (Week 52): −20.2%
VLDL and chylomicron particles, Least Squares Mean % CFB Difference from PBO (Week 52): −28.4%
VLDL and chylomicron triglycerides, Least Squares Mean % CFB (Week 52): −17.9%
VLDL and chylomicron triglycerides, Least Squares Mean % CFB Difference from PBO (Week 52): −22.8%
VLDL particle size, Least Squares Mean % CFB (Week 52): 3.4%
VLDL particle size, Least Squares Mean % CFB Difference from PBO (Week 52): 1.4%
ApoB, Least Squares Mean % CFB (Week 52): −26.6%
ApoB, Least Squares Mean % CFB Difference from PBO (Week 52): −20.1%
LDL-C, Least Squares Mean % CFB (Week 52): −27.1%
LDL-C, Least Squares Mean % CFB Difference from PBO (Week 52): −17.5%
Lp(a), LS mean % CFB (week 24): −35.9%
Lp(a), LS mean % CFB difference from PBO (week 24): 35.1%
Triglycerides, LS mean % CFB (week 24): −21.7%
Triglycerides, LS mean % CFB difference from PBO (week 24): −19.1%
ApoB, LS mean % CFB (week 52): -22.3%
ApoB, LS mean % CFB difference from PBO (week 52): −22.9%
LDL-C, LS mean % CFB (week 52): −19.5%
LDL-C, LS mean % CFB difference from PBO (week 52): −19.0%
Lp(a), LS mean % CFB (week 52): −37.5%
Lp(a), LS mean % CFB difference from PBO (week 52): −32.4%
Triglycerides, LS mean % CFB (week 52): −28.4%
Triglycerides, LS mean % CFB difference from PBO (week 52): −24.9%
